Where “and” joins values, the source holds several entries; their conditions need not be identical. Equal values may be shown once. Entries after “also recorded” stand apart in the source; their conditions may differ.
Columns and labels:
Type in all cases: in vivo, patients
[1] = system: total insulin and C-peptide; test: Fasting total insulin and C-peptide in 52-week clinical study; settings: for C-Peptide, Adjusted Mean Change From Baseline (SE) / Total Insulin, Adjusted Mean Change From Baseline (SE) / C-Peptide, Adjusted Mean Difference From Glyburide / Total Insulin, Adjusted Mean Difference From Glyburide: ITT, Week 52; for C-Peptide, Adjusted Mean Difference From Glyburide / Total Insulin, Adjusted Mean Difference From Glyburide: *p ≤ 0.05
Description: This was a 12-month, double-blind, randomized, parallel-group, active-control, multicenter study design (FIG. 1). […] Secondary efficacy parameters included markers of glycemic homeostasis (insulin and C-peptide) and markers of lipid metabolism (total cholesterol, total triglycerides, HDL, VLDL, LDL (measured), free fatty acids, Lp(a), Apo A1, and Apo B). Efficacy analysis was performed on 2 patient populations, intent-to-treat and completers. […] Patients withdrawing from the study before Week 52 were included in the analysis using the LOCF procedure; the last measurement on treatment was substituted for the missing Week 52 measurement. The intent-to-treat patient sample was the primary sample for assessing efficacy. Completers comprised patients in the intent-to-treat sample who completed Week 52. The analysis of change from baseline to Week 52 was performed using analysis of covariance (ANCOVA). The primary model included effects due to treatment and center and baseline as covariate. Treatment-by-baseline and treatment-by-center interactions were also examined in supplemental models.

[2] = system: non-insulin dependent diabetes mellitus (NIDDM); test: Patient disposition (withdrawal, completion)
Text: This was a 12-month, double-blind, randomized, parallel-group, active-control, multicenter study design (FIG. 1). […] Patients could withdraw voluntarily at any time during the study or be withdrawn by the investigator because of significant adverse events or deterioration in health, poor compliance, pregnancy, or prolonged symptomatic hyperglycemia or persistent worsening or failure to improve glycemic control as monitored by FSG.

[3] = Safety: adverse events and clinical laboratory measurements
Description: A complete physical examination and ECG were performed during screening and at the end of the study. Clinical laboratory parameters and vital signs including blood pressure were monitored throughout the study for safety reasons. Adverse events were recorded during clinic visits and evaluated by the investigator for intensity and relationship to study drug. Reduction in the daily dose of micronized glyburide could occur in cases of documented hypoglycemia.
All patients randomized to treatment were included in all safety evaluations.
Hypoglycemia, defined as an FSG <50 mg/dL (verified laboratory value), was to be recorded as an adverse event.
Adverse events that were treatment emergent (not present at baseline) are summarized in the following section using a modified COSTART dictionary. If, however, an adverse event present at baseline increased in intensity or frequency during treatment, the event was included in the summaries. Each patient reporting an adverse event was counted only once for that event regardless of the number of times the adverse event was reported. Associated adverse events were those considered by the investigator to be possibly, probably, or definitely related to study therapy.
Baseline clinical laboratory parameters were compared with values at the end of the study (last visit) to identify any abnormal trends. The percent of patients with increases or decreases in laboratory values were calculated based on the number of patients at risk for changes outside of the reference range; i.e., patients with low or high values at baseline were not considered at risk for a decrease or increase, respectively.
Laboratory results were then reviewed for these particular patients to determine which patients actually had clinically important changes in a given laboratory parameter.

[4] = system: non-insulin dependent diabetes mellitus (NIDDM); test: Glycemic control (FSG, HbA1c, responders) in 52-week double-blind clinical study; settings: for ≥30 mg/dL Reduction in FSG, Responders, N (%) / ≥1% Reduction in HbA1c, Responders, N (%): *p ≤ 0.001 vs glyburide
Text: The method of treating diabetes employing a combination of a sulfonylurea and a glitazone has been established in a long-term controlled clinical evaluation. The study determined the efficacy and safety of troglitazone alone and in combination with the sulfonylurea glyburide for the treatment of non-insulin dependent diabetes mellitus (NIDDM). This study targeted the segment of the NIDDM population in which the disease state has progressed to a point where maximum doses of sulfonylureas no longer produce adequate glycemic control. […] Since the unstimulated (absence of sulfonylurea) insulin secretory capacity of the beta cells is very low in this population, reversing insulin resistance alone would be of partial benefit. Therefore, maintaining a level of stimulated insulin secretion with a sulfonylurea while adding troglitazone to improve insulin sensitivity could provide a level of glycemic control unattainable by either medication alone. […] Long-term safety was also an objective of this study, assessed by adverse events and clinical laboratory data. This was a 12-month, double-blind, randomized, parallel-group, active-control, multicenter study design (FIG. 1). […] The primary efficacy parameters included endpoints related to glucose homeostasis: FSG and HbA1c. The change from baseline in these parameters at Week 52 compared to active control (glyburide) was the primary measure of efficacy. For patients terminating early from the study, their last observation was carried forward (LOCF) to Week 52. A decrease in these parameters was indicative of an improvement in glycemic control. Efficacy analysis was performed on 2 patient populations, intent-to-treat and completers. […] Patients withdrawing from the study before Week 52 were included in the analysis using the LOCF procedure; the last measurement on treatment was substituted for the missing Week 52 measurement. The intent-to-treat patient sample was the primary sample for assessing efficacy. Completers comprised patients in the intent-to-treat sample who completed Week 52. The analysis of change from baseline to Week 52 was performed using analysis of covariance (ANCOVA). The primary model included effects due to treatment and center and baseline as covariate. Treatment-by-baseline and treatment-by-center interactions were also examined in supplemental models. For the primary comparisons of glyburide versus each combination, step-down tests for linear trend in dose response were performed based on the primary model. For the remaining primary pairwise comparisons of glyburide versus each monotherapy, t-tests were performed using the MSE from the analysis of covariance (with a Bonferroni-Holm adjustment). For all comparisons with glyburide, 95 confidence intervals are provided using Dunnett's test. […] For each patient, the baseline measurement for a given parameter was defined as the measurement at Week 0. […] The frequency distribution (number and percentage) of responders were provided by treatment group and visit. For the set of primary treatment comparisons concerning glyburide versus combination therapy, step-down comparisons of responders in each treatment group versus the glyburide group were performed by sequential application of the Cochran-Mantel-Haenszel (CMH) test for linear trend with study centers as strata. […] The CMH test for general association were also used to perform the secondary treatment comparisons as supplemental analysis.

[5] = troglitazone 200 mg, or 200 mg/12 mg in combination
[6] = troglitazone 400 mg, or 400 mg/12 mg in combination
[7] = troglitazone 600 mg, or 600 mg/12 mg in combination
[8] = Week 52, compared with glyburide
[9] = Completers, Week 52, troglitazone 200 mg, or 200 mg/12 mg in combination
[10] = Completers, Week 52, troglitazone 200 mg, or 200 mg/12 mg in combination, *p ≤ 0.05, **p ≤ 0.0001
[11] = Completers, Week 52, troglitazone 400 mg, or 400 mg/12 mg in combination
[12] = Completers, Week 52, troglitazone 600 mg, or 600 mg/12 mg in combination
[13] = ITT, Week 52, troglitazone 200 mg, or 200/12 mg in combination
[14] = ITT, Week 52, troglitazone 400 mg, or 400 mg/12 mg in combination, *p ≤ 0.001, **p ≤ 0.0001
[15] = ITT, Week 52, troglitazone 400 mg, or 400/12 mg in combination
[16] = ITT, Week 52, troglitazone 600 mg, or 600 mg/12 mg in combination, *p ≤ 0.001, **p ≤ 0.0001
[17] = ITT, Week 52, troglitazone 600 mg, or 600/12 mg in combination

## Cc1c(C)c2c(c(C)c1O)CCC(C)(COc1ccc(CC3SC(=O)NC3=O)cc1)O2 (stereo not drawn) [Troglitazone]
[1]; [5]
  C-Peptide, Adjusted Mean Change From Baseline (SE): -0.96 (0.07) ng/mL
  Total Insulin, Adjusted Mean Change From Baseline (SE): -8.41 (1.39) μIU/mL
  C-Peptide, Adjusted Mean Difference From Glyburide: 0.29 ng/mL
  Total Insulin, Adjusted Mean Difference From Glyburide: -6.96 μIU/mL
[1]; [6]
  C-Peptide, Adjusted Mean Change From Baseline (SE): -0.78 (0.07) ng/mL
  Total Insulin, Adjusted Mean Change From Baseline (SE): -5.90 (1.40) μIU/mL
  C-Peptide, Adjusted Mean Difference From Glyburide: -0.11 ng/mL
  Total Insulin, Adjusted Mean Difference From Glyburide: -4.44 μIU/mL
[1]; [7]
  C-Peptide, Adjusted Mean Change From Baseline (SE): -1.01 (0.08) ng/mL
  Total Insulin, Adjusted Mean Change From Baseline (SE): -11.53 (1.42) μIU/mL
  C-Peptide, Adjusted Mean Difference From Glyburide: 0.34 ng/mL
  Total Insulin, Adjusted Mean Difference From Glyburide: -10.07 μIU/mL
[1]; [8]
  C-peptide (result in words): Significant (p≤0.05) decreases in C-peptide were observed for troglitazone monotherapy only (200 and 600 mg troglitazone)
  total insulin (result in words): significant (p≤0.05) decrease in total insulin compared with glyburide
[1]; completers, 400 and 600 mg troglitazone, p<0.05 vs glyburide
  total insulin, completers (result in words): decreases in total insulin that were significantly different from glyburide (p<0.05)
[2]; 200 mg troglitazone
  withdrawal for lack of efficacy: ~60% and 55%
[2]; [5]
  Withdrawn, Adverse Event, Number (%) of Patients: 6 (7.7) Number (%) of Patients
  Withdrawn, Lack of Efficacy, Number (%) of Patients: 43 (55.1) Number (%) of Patients
[2]; [6]
  Withdrawn, Adverse Event, Number (%) of Patients: 7 (8.6) Number (%) of Patients
  Withdrawn, Lack of Efficacy, Number (%) of Patients: 32 (39.5) Number (%) of Patients
[2]; [7]
  Withdrawn, Adverse Event, Number (%) of Patients: 6 (7.7) Number (%) of Patients
  Withdrawn, Lack of Efficacy, Number (%) of Patients: 34 (43.6) Number (%) of Patients
[3]; 200 mg monotherapy
  patients with mildly elevated liver enzymes (<3×upper normal limit) at end of study: one
[3]; human, in vivo
  adverse event profile versus glyburide monotherapy (result in words): Most adverse events occurred at the lower incidence in patients treated with troglitazone monotherapy compared with the patients treated with glyburide monotherapy
  hematological parameters (result in words): no patient experienced clinically important decreases in any hematological parameter that can be directly attributable to troglitazone
[3]; overall, all doses
  patients with adverse events: 70%
[3]; remaining on drug, mono: two on 400 mg, one on 600 mg, combination: three on 400 mg/12 mg, one on 600 mg/12 mg
  patients with mildly transient decreases in hemoglobin/hematocrit which returned to baseline: 3 patients
[3]; throughout the study
  tolerability (result in words): well-tolerated throughout the study; also recorded: well-tolerated during the study
[4]; [9]
  Fasting Serum Glucose, Adjusted Mean Change From Baseline (SE): 13.4 (12.0) mg/dL
  Hemoglobin A1c, Adjusted Mean Change From Baseline (SE): 0.55 (0.38) %
[4]; [10]
  Fasting Serum Glucose, Adjusted Mean Difference From Glyburide Monotherapy (SE): 0.3 (14.6) mg/dL
  Hemoglobin A1c, Adjusted Mean Difference From Glyburide Monotherapy (SE): -0.23 (0.46) %
[4]; [11]
  Fasting Serum Glucose, Adjusted Mean Change From Baseline (SE): -20.5 (9.4) mg/dL
  Hemoglobin A1c, Adjusted Mean Change From Baseline (SE): -0.25 (0.29) %
[4]; [12]
  Fasting Serum Glucose, Adjusted Mean Change From Baseline (SE): -11.7 (9.8) mg/dL
  Hemoglobin A1c, Adjusted Mean Change From Baseline (SE): -0.26 (0.30) %
[4]; Completers, Week 52, troglitazone 600 mg, or 600 mg/12 mg in combination, *p ≤ 0.05, **p ≤ 0.0001
  Fasting Serum Glucose, Adjusted Mean Difference From Glyburide Monotherapy (SE): -24.8 (12.6) mg/dL
[4]; ITT, Week 52 (Month 12), troglitazone 200 mg, or 200 mg/12 mg in combination
  Fasting Serum Glucose, Adjusted Mean Change From Baseline (SE): 42.4 (7.0) mg/dL
[4]; ITT, Week 52 (Month 12), troglitazone 400 mg, or 400 mg/12 mg in combination
  Fasting Serum Glucose, Adjusted Mean Change From Baseline (SE): 20.6 (7.0) mg/dL
[4]; ITT, Week 52 (Month 12), troglitazone 600 mg, or 600 mg/12 mg in combination
  Fasting Serum Glucose, Adjusted Mean Change From Baseline (SE): 11.1 (7.1) mg/dL
[4]; ITT, Week 52, 400 and 600 mg troglitazone monotherapy
  FSG versus glyburide (result in words): these decreases were not significant
[4]; ITT, Week 52, troglitazone 200 mg, or 200 mg/12 mg in combination
  Hemoglobin A1c, Adjusted Mean Change From Baseline (SE): 1.92 (0.20) %
[4]; ITT, Week 52, troglitazone 200 mg, or 200 mg/12 mg in combination, *p ≤ 0.001, **p ≤ 0.0001
  Fasting Serum Glucose, Adjusted Mean Difference From Glyburide Monotherapy (SE): 19.6 (9.7) mg/dL
[4]; ITT, Week 52, troglitazone 200 mg, or 200 mg/12 mg in combination, listed as troglitazone
  Hemoglobin A1c, Adjusted Mean Change From Baseline (SE): 1.92%
[4]; [13]
  ≥30 mg/dL Reduction in FSG, Responders, N (%): 11 (14) N (%)
  ≥1% Reduction in HbA1c, Responders, N (%): 3 (4) N (%)
[4]; ITT, Week 52, troglitazone 400 mg, or 400 mg/12 mg in combination
  Hemoglobin A1c, Adjusted Mean Change From Baseline (SE): 0.85 (0.20) %
[4]; [14]
  Fasting Serum Glucose, Adjusted Mean Difference From Glyburide Monotherapy (SE): -2.2 (9.7) mg/dL
  Hemoglobin A1c, Adjusted Mean Difference From Glyburide Monotherapy (SE): -0.05 (0.28) %
[4]; [15]
  ≥30 mg/dL Reduction in FSG, Responders, N (%): 20 (26) N (%)
  ≥1% Reduction in HbA1c, Responders, N (%): 13 (17) N (%)
[4]; ITT, Week 52, troglitazone 600 mg, or 600 mg/12 mg in combination
  Hemoglobin A1c, Adjusted Mean Change From Baseline (SE): 0.93 (0.20) %
[4]; [16]
  Fasting Serum Glucose, Adjusted Mean Difference From Glyburide Monotherapy (SE): -11.6 (9.7) mg/dL
  Hemoglobin A1c, Adjusted Mean Difference From Glyburide Monotherapy (SE): 0.03 (0.28) %
[4]; [17]
  ≥30 mg/dL Reduction in FSG, Responders, N (%): 18 (24) N (%)
  ≥1% Reduction in HbA1c, Responders, N (%): 8 (11) N (%)
[4]; completers, 400 and 600 mg troglitazone monotherapy, p ≤0.05
  HbA1c versus glyburide monotherapy (result in words): HbA1c decreased significantly (p ≤0.05) compared with glyburide monotherapy
